Data as given in PubChem BioAssay (NCI).
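Briefly, cells in 96-well plates were exposed to five compound concentrations for 48 h, and endpoints were estimated by linear interpolation. At the TGI there is no net growth.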

What was measured:
Test in all cases: inhibition of tumour cell growth, NCI panel, 48 h
NCI/ADR-RES ovarian = tested on: NCI/ADR-RES ovarian
LOX IMVI melanoma = tested on: LOX IMVI melanoma
EKVX NSCLC = tested on: EKVX NSCLC
SK-MEL-2 melanoma = tested on: SK-MEL-2 melanoma
PC-3 prostate = tested on: PC-3 prostate
SK-OV-3 ovarian = tested on: SK-OV-3 ovarian
SN12C renal = tested on: SN12C renal
BT-549 breast = tested on: BT-549 breast
NCI-H23 lung = tested on: NCI-H23 lung
NCI-H522 lung = tested on: NCI-H522 lung
COLO 205 colon = tested on: COLO 205 colon
OVCAR-4 ovarian = tested on: OVCAR-4 ovarian
MOLT-4 leukemia = tested on: MOLT-4 leukemia
OVCAR-8 ovarian = tested on: OVCAR-8 ovarian
IGROV1 ovarian = tested on: IGROV1 ovarian
MCF7 breast = tested on: MCF7 breast
RXF 393 renal = tested on: RXF 393 renal
SK-MEL-28 melanoma = tested on: SK-MEL-28 melanoma
UACC-62 melanoma = tested on: UACC-62 melanoma
UACC-257 melanoma = tested on: UACC-257 melanoma
DU-145 prostate = tested on: DU-145 prostate
SW-620 colon = tested on: SW-620 colon
MDA-MB-231 breast = tested on: MDA-MB-231 breast
KM12 colon = tested on: KM12 colon
HS 578T breast = tested on: HS 578T breast
HL-60(TB) leukemia = tested on: HL-60(TB) leukemia
K-562 leukemia = tested on: K-562 leukemia
HOP-62 NSCLC = tested on: HOP-62 NSCLC
OVCAR-5 ovarian = tested on: OVCAR-5 ovarian
SNB-75 CNS = tested on: SNB-75 CNS
SNB-19 CNS = tested on: SNB-19 CNS
TK-10 renal = tested on: TK-10 renal
HT29 colon = tested on: HT29 colon
T-47D breast = tested on: T-47D breast
MALME-3M melanoma = tested on: MALME-3M melanoma
NCI-H460 lung = tested on: NCI-H460 lung
MDA-N = tested on: MDA-N
CAKI-1 renal = tested on: CAKI-1 renal
SF-539 CNS = tested on: SF-539 CNS
SF-295 CNS = tested on: SF-295 CNS
HCC-2998 colon = tested on: HCC-2998 colon
M14 melanoma = tested on: M14 melanoma
HCT-15 colon = tested on: HCT-15 colon
786-0 renal = tested on: 786-0 renal
HCT-116 colon = tested on: HCT-116 colon
UO-31 renal = tested on: UO-31 renal
OVCAR-3 ovarian = tested on: OVCAR-3 ovarian
SR leukemia = tested on: SR leukemia
A549 NSCLC = tested on: A549 NSCLC
SK-MEL-5 melanoma = tested on: SK-MEL-5 melanoma
CCRF-CEM leukemia = tested on: CCRF-CEM leukemia
SF-268 CNS = tested on: SF-268 CNS
RPMI-8226 leukemia = tested on: RPMI-8226 leukemia
MDA-MB-435 = tested on: MDA-MB-435
ACHN renal = tested on: ACHN renal
NCI-H226 lung = tested on: NCI-H226 lung
U251 CNS = tested on: U251 CNS
A498 renal = tested on: A498 renal
HOP-92 NSCLC = tested on: HOP-92 NSCLC

Measured: TGI

COC(=O)/C=C1/N=C(N(C)/N=C/c2ccccc2)NC1=O
not listed: RPMI-8226 leukemia | MDA-MB-435 | ACHN renal | NCI-H226 lung | U251 CNS | A498 renal | HOP-92 NSCLC
> 100 µM: all other assays above

Cc1ccc(-n2c(Cn3nnc(-c4cccnc4)n3)nn(C3OC(COC(=O)c4ccccc4)C(OC(=O)c4ccccc4)C3OC(=O)c3ccccc3)c2=S)cc1 (configuration not stated)
not listed: HL-60(TB) leukemia | SR leukemia | A498 renal | HOP-92 NSCLC
> 100 µM: all other assays above

Cc1ccc2[nH]c3[nH]c(=O)[nH]c(=O)c3c2c1
not listed: PC-3 prostate | OVCAR-4 ovarian | SK-MEL-28 melanoma | MDA-MB-231 breast | NCI-H460 lung | HCC-2998 colon | SR leukemia | U251 CNS
> 100 µM: all other assays above

CSc1nc2c(N)ncnc2n1C
not listed: BT-549 breast | NCI-H23 lung | HL-60(TB) leukemia | SR leukemia | HOP-92 NSCLC
> 100 µM: all other assays above
